Here are results for six molecules from the NIST ThermoML archive (doi:10.1016/j.fluid.2017.05.008).

± gives the expanded uncertainty stated by the source.

The term surface tension liquid-gas denotes the force per length acting along the surface. Usually viscosity stands for the resistance of a fluid to flow.

This data set can be described thus: an = ratio of the nth substance listed. The following applies: 298.15 K; for surface tension liquid-gas: Ring tensiometer; for viscosity: 101 kPa, Liquid, Concentric cylinders viscometry.

On to `OCCCCO` [1,4-butanediol] + C[N+](C)(C)CCO.[Cl-], for which, for the setting “a1 = 3”, the surface tension liquid-gas turned out to be 55.8 ± 0.9 mN/m and the viscosity was 94 ± 6 mPa·s.

With `C[N+](C)(C)CCO.[Cl-]` [choline chloride] + OCCO, under “a2 = 2”, the surface tension liquid-gas worked out at 56.5 ± 0.6 mN/m and the viscosity was found to be 40 ± 2 mPa·s.

`C[N+](C)(C)CCO.[Cl-]` [choline chloride] + OCC(O)CO: under “a2 = 2”, the surface tension liquid-gas amounted to 68.7 ± 1.1 mN/m and the viscosity is 296 ± 32 mPa·s.

In the case of `OCCCCCO` [1,5-pentanediol] + C[N+](C)(C)CCO.[Cl-], where the note is “a1 = 3.5”, the surface tension liquid-gas was 47.5 ± 0.8 mN/m and the viscosity amounted to 110 ± 7 mPa·s.

In the case of `O.O.O=C(O)C(=O)O` [ethanedioic acid dihydrate] + C[N+](C)(C)CCO.[Cl-], under “a1 = 1”, the surface tension liquid-gas is given as 60.8 ± 1 mN/m and the viscosity worked out at 767 ± 140 mPa·s.

For the molecule `NC(N)=O` [urea] + C[N+](C)(C)CCO.[Cl-], where the note is “a1 = 2”, the surface tension liquid-gas is 71.6 ± 1.2 mN/m and the viscosity stood at 849 ± 150 mPa·s.
